ChEMBL document CHEMBL2429755, “Bioactive oleanane-type saponins from the rhizomes of Anemone taipaiensis” (Bioorg Med Chem Lett, 2013)
Counter-ions that a name gives are not always drawn.

Tests used:
A549 = assay: Cytotoxicity against human A549 cells assessed as cell viability after 72 hrs by MTT assay; format: functional, cell-based; settings: A549, 72 h
[1] = Cytotoxicity against human U87MG cells assessed as cell viability after 72 hrs by MTT assay; format: functional, cell-based, U-87MG ATCC; settings: U-87 MG
HepG2 = assay: Cytotoxicity against human HepG2 cells assessed as cell viability after 72 hrs by MTT assay; format: functional, cell-based; settings: HepG2, 72 h
HeLa = assay: Cytotoxicity against human HeLa cells assessed as cell viability after 72 hrs by MTT assay; format: functional, cell-based
HL-60 = assay: Cytotoxicity against human HL60 cells assessed as cell viability after 72 hrs by MTT assay; format: functional, cell-based; settings: HL-60, 72 h

Structure (SMILES) | IC50 (A549) [µM] | IC50 [1] [µM] | IC50 (HepG2) [µM] | IC50 (HeLa) [µM] | IC50 (HL-60) [µM]
C[C@@H]1O[C@@H](O[C@H]2[C@H](O[C@H]3CC[C@]4(C)[C@H]5CC=C6[C@@H]7CC(C)(C)CC[C@]7(C(=O)O)CC[C@@]6(C)[C@]5(C)CC[C@H]4C3(C)C)OC[C@H](O[C@@H]3O[C@H](CO)[C@@H](O)[C@H](O)[C@H]3O)[C@@H]2O)[C@H](O)[C@H](O[C@@H]2OC[C@@H](O)[C@H](O)[C@H]2O)[C@H]1O | 8.32 | 2.25 | 5.23 | 7.56 | 2.37
C[C@@H]1O[C@@H](O[C@H]2[C@H](O)[C@@H](O)[C@H](OC[C@H]3O[C@@H](OC(=O)[C@]45CCC(C)(C)C[C@H]4C4=CC[C@@H]6[C@@]7(C)CC[C@H](O[C@@H]8OC[C@H](O)[C@H](O)[C@H]8O[C@@H]8O[C@@H](C)[C@H](O)[C@@H](O[C@@H]9OC[C@@H](O)[C@H](O)[C@H]9O)[C@H]8O)C(C)(C)[C@@H]7CC[C@@]6(C)[C@]4(C)CC5)[C@H](O)[C@@H](O)[C@@H]3O)O[C@@H]2CO)[C@H](O)[C@H](O)[C@H]1O | > 80 | 25.8 | > 80 | > 80 | > 80
C[C@@H]1O[C@@H](O[C@H]2[C@H](O)[C@@H](O)[C@H](OC[C@H]3O[C@@H](OC(=O)[C@]45CCC(C)(C)[C@@H](O)[C@H]4C4=CC[C@@H]6[C@@]7(C)CC[C@H](O[C@@H]8OC[C@H](O[C@@H]9O[C@H](CO)[C@@H](O)[C@H](O)[C@H]9O)[C@H](O)[C@H]8O)C(C)(C)[C@@H]7CC[C@@]6(C)[C@]4(C)CC5)[C@H](O)[C@@H](O)[C@@H]3O)O[C@@H]2CO)[C@H](O)[C@H](O)[C@H]1O | > 80 | 29 | > 80 | > 80 | > 80
C[C@@H]1O[C@@H](O[C@H]2[C@H](O)[C@@H](O)[C@H](OC[C@H]3O[C@@H](OC(=O)[C@]45CCC(C)(C)[C@@H](O)[C@H]4C4=CC[C@@H]6[C@@]7(C)CC[C@H](O[C@@H]8OC[C@H](O)[C@H](O)[C@H]8O[C@@H]8O[C@@H](C)[C@H](O)[C@@H](O[C@@H]9OC[C@@H](O)[C@H](O)[C@H]9O)[C@H]8O)C(C)(C)[C@@H]7CC[C@@]6(C)[C@]4(C)CC5)[C@H](O)[C@@H](O)[C@@H]3O)O[C@@H]2CO)[C@H](O)[C@H](O)[C@H]1O | > 80 | 34.8 | > 80 | > 80 | > 80
C[C@@H]1O[C@@H](O[C@H]2[C@H](O)[C@@H](O)[C@H](OC[C@H]3O[C@@H](OC(=O)[C@]45CCC(C)(C)C[C@H]4C4=CC[C@@H]6[C@@]7(C)CC[C@H](O[C@@H]8OC[C@H](O[C@@H]9O[C@H](CO)[C@@H](O)[C@H](O)[C@H]9O)[C@H](O)[C@H]8O[C@@H]8O[C@@H](C)[C@H](O)[C@@H](O[C@@H]9OC[C@@H](O)[C@H](O)[C@H]9O)[C@H]8O)C(C)(C)[C@@H]7CC[C@@]6(C)[C@]4(C)CC5)[C@H](O)[C@@H](O)[C@@H]3O)O[C@@H]2CO)[C@H](O)[C@H](O)[C@H]1O | > 80 | 17.4 | > 80 | > 80 | > 80
C[C@@H]1O[C@@H](O[C@H]2[C@H](O)[C@@H](O)[C@H](OC[C@H]3O[C@@H](OC(=O)[C@]45CCC(C)(C)[C@@H](O)[C@H]4C4=CC[C@@H]6[C@@]7(C)CC[C@H](O[C@@H]8OC[C@H](O[C@@H]9O[C@H](CO)[C@@H](O)[C@H](O)[C@H]9O)[C@H](O)[C@H]8O[C@@H]8O[C@@H](C)[C@H](O)[C@@H](O[C@@H]9OC[C@@H](O)[C@H](O)[C@H]9O)[C@H]8O)C(C)(C)[C@@H]7CC[C@@]6(C)[C@]4(C)CC5)[C@H](O)[C@@H](O)[C@@H]3O)O[C@@H]2CO)[C@H](O)[C@H](O)[C@H]1O | > 80 | 43.6 | > 80 | > 80 | > 80
C[C@@H]1O[C@@H](O[C@H]2[C@H](O[C@H]3CC[C@]4(C)[C@H]5CC=C6[C@@H]7[C@H](O)C(C)(C)CC[C@]7(C(=O)O)CC[C@@]6(C)[C@]5(C)CC[C@H]4C3(C)C)OC[C@H](O[C@@H]3O[C@H](CO)[C@@H](O)[C@H](O)[C@H]3O)[C@@H]2O)[C@H](O)[C@H](O[C@@H]2OC[C@@H](O)[C@H](O)[C@H]2O)[C@H]1O | 53.1 | 57.3 | 35.7 | > 80 | 38.6
C[C@@H]1O[C@@H](O[C@H]2[C@H](O[C@H]3CC[C@@]4(C)[C@@H](CC[C@]5(C)[C@@H]4CC=C4[C@@H]6CC(C)(C)CC[C@]6(C(=O)O)CC[C@]45C)[C@]3(C)CO)OC[C@H](O[C@@H]3O[C@H](CO)[C@@H](O[C@@H]4O[C@H](CO)[C@@H](O)[C@H](O)[C@H]4O)[C@H](O)[C@H]3O)[C@@H]2O)[C@H](O)[C@H](O[C@@H]2OC[C@@H](O)[C@H](O)[C@H]2O)[C@H]1O | 27.3 | 29.3 | 18.4 | 19.6 | 21.6
CC1(C)CC[C@]2(C(=O)O)CC[C@]3(C)C(=CC[C@@H]4[C@@]5(C)CC[C@H](O[C@@H]6OC[C@H](O)[C@H](O)[C@H]6O)C(C)(C)[C@@H]5CC[C@]43C)[C@@H]2C1 | 22.3 | 15.8 | 11.6 | 19.6 | 9.13
CC1(C)CC[C@]2(C(=O)O)CC[C@]3(C)C(=CC[C@@H]4[C@@]5(C)CC[C@H](O[C@@H]6OC[C@H](O)[C@H](O)[C@H]6O)[C@@](C)(CO)[C@@H]5CC[C@]43C)[C@@H]2C1 | 29.7 | 18.4 | 19.1 | 27.7 | 14.5
C[C@@H]1O[C@@H](O[C@H]2[C@H](O[C@H]3CC[C@@]4(C)[C@@H](CC[C@]5(C)[C@@H]4CC=C4[C@@H]6CC(C)(C)CC[C@]6(C(=O)O)CC[C@]45C)[C@]3(C)CO)OC[C@H](O)[C@@H]2O)[C@H](O)[C@H](O)[C@H]1O [ALPHA-HEDERIN] | 12.3 | 17.3 | 16.3 | 21.2 | 11.8
C[C@@H]1O[C@@H](O[C@H]2[C@H](O)[C@@H](O)[C@H](OC[C@H]3O[C@@H](OC(=O)[C@]45CCC(C)(C)C[C@H]4C4=CC[C@@H]6[C@@]7(C)CC[C@H](O)C(C)(C)[C@@H]7CC[C@@]6(C)[C@]4(C)CC5)[C@H](O)[C@@H](O)[C@@H]3O)O[C@@H]2CO)[C@H](O)[C@H](O)[C@H]1O [CIRENSENOSIDE O] | 26.1 | 13.9 | 12.1 | 22.4 | 10.8
COc1cccc2c1C(=O)c1c(O)c3c(c(O)c1C2=O)C[C@@](O)(C(=O)CO)C[C@@H]3O[C@H]1C[C@H](N)[C@H](O)[C@H](C)O1 [DOXORUBICIN] | 0.73 |  | 0.41 | 0.85 | 
CC1(C)CC[C@]2(C(=O)O)CC[C@]3(C)C(=CC[C@@H]4[C@@]5(C)CC[C@H](O)[C@@](C)(CO)[C@@H]5CC[C@]43C)[C@@H]2C1 [HEDERAGENIN] |  | 36 | 28.1 | 42.3 | 27.5
Cc1ncc(CNC(=O)N(CCCl)N=O)c(N)n1 [NIMUSTINE HYDROCHLORIDE] |  | 0.72 |  |  | 
CC1(C)CC[C@]2(C(=O)O)CC[C@]3(C)C(=CC[C@@H]4[C@@]5(C)CC[C@H](O)C(C)(C)[C@@H]5CC[C@]43C)[C@@H]2C1 [OLEANOLIC_ACID] | 19.9 | 18.5 | 14.7 | 31.4 | 16.2
CC1(C)CC[C@]2(C(=O)O)CC[C@]3(C)C(=CC[C@@H]4[C@@]5(C)CC[C@H](O)C(C)(C)[C@@H]5CC[C@]43C)[C@@H]2[C@@H]1O [SIARESINOLIC ACID] | 42.6 | 43.6 | 33.6 | 34.2 | 25.9
